From patent US6177404A (Merck & Co., Inc., priority 1998, dated 2001) come the findings set out here.

In general, EC50 refers to the concentration giving half of the maximal effect. Lower therefore signals an effect from little substance.

The subject of the first series is LNCaP prostate tumor cells. Kind of series: In vitro Alamar Blue cytotoxicity assay of non-cleavable oligopeptide-doxorubicin conjugates. The following applies: FIG. 4 legend, cells incubated 3 days at 37° C., cell line not named in legend (LNCaP or DuPRO in method). Type of series: cell-based, human. As to the method:
The cytotoxicities of the non-cleaveable oligopeptide-doxorubicin conjugates, prepared as described in Example 4, against a line of cells which is known to be killed by unmodified doxorubicin were assessed with an Alamar Blue assay. Specifically, cell cultures of LNCaP prostate tumor cells, which are a human metastatic prostate adenocarcinoma isolated from a needle biopsy of a lymph node (LNCaP.FGC: American Type Culture Collection, ATCC CRL 1740), or DuPRO cells in 96 well plates were diluted with medium containing various concentrations of a given conjugate (final plate well volume of 200 μl). The cells were incubated for 3 days at 37° C. and then 20 μl of Alamar Blue was added to the assay well. The cells were further incubated and the assay plates were read on a EL-310 ELISA reader at the dual wavelengths of 570 and 600 nm at 4 and 7 hours after addition of Alamar Blue. Relative percentage viability at the various concentration of conjugate tested was then calculated versus control (no conjugate) cultures. Cytotoxicities of unmodified doxorubicin and unmodified oligopeptide were also assessed.
For `COc1cccc2c1C(=O)c1c(O)c3c(c(O)c1C2=O)C[C@@](O)(C(=O)CO)C[C@@H]3O[C@H]1C[C@H](N)[C@H](O)[C@H](C)O1` [doxorubicin], a half-maximal effect (EC50) was put at 300 nM.

Another series deals with free PSA.
Assay: not given
Settings: not given
For “Ac-AlaAsnGluIleSerTyrGln.vertline.SerAlaSerThrGlu-amide”, the cleaved bond entry is on record as “Gln-Ser”.

With “Ac-AlaAsnLysAlaSerTyrGln.vertline.SerAlaSerCys-amide”, the cleaved bond result is “Gln-Ser”.

On to “Ac-AlaAsnLysAlaSerTyrGln.vertline.SerAlaSerThrGlu-amide”, for which the cleaved bond entry is “Gln-Ser”.

Consider “Ac-AlaAsnLysIleSerTyrGln.vertline.SerAlaLysThrGlu-amide”, for which the cleaved bond result was “Gln-Ser”.

Regarding “Ac-AlaAsnLysIleSerTyrGln.vertline.SerAlaSerThrGlu-amide”, the cleaved bond result is “Gln-Ser”.

Take “Ac-AlaAsnLysIleSerTyrGln.vertline.SerSerGlnThrGlu-amide”: the cleaved bond result was “Gln-Ser”.

As for “Ac-AlaAsnLysIleSerTyrGln.vertline.SerSerLysThrGlu-amide”, the cleaved bond entry is “Gln-Ser”.

Turning to “Ac-AlaAsnLysIleSerTyrGln.vertline.SerSerSerThrGlu-amide”, the cleaved bond result is listed as “Gln-Ser”.

As to “Ac-AlaAsnLysIleSerTyrGln.vertline.SerSerSerThrLeu”, the cleaved bond entry was “Gln-Ser”.

On to “Ac-AlaAsnLysIleSerTyrGln.vertline.SerSerSerThrLeu-amide”, for which the cleaved bond result is “Gln-Ser”.

Consider “Ac-AlaAsnLysIleSerTyrGln.vertline.SerSerThrGlu-amide”, for which the cleaved bond result is reported as “Gln-Ser”.

Regarding “Ac-AlaAsnLysIleSerTyrGln.vertline.SerThrGlu-amide”, the cleaved bond result is “Gln-Ser”.

As for “Ac-AlaAsnLysIleSerTyrTyr.vertline.SerAlaSerThrGlu-amide”, the cleaved bond entry is “Tyr-Ser”.

In the case of “Ac-AlaAsnLysIleSerTyrTyr.vertline.SerSerSerThrGlu-amide”, the cleaved bond entry is “Tyr-Ser”.

As to “Ac-AlaAsnLysSerTyrGln.vertline.SerSerThrGlu-amide”, the cleaved bond result is given as “Gln-Ser”.

Regarding “Ac-AlaAsnSerTyrGln.vertline.SerSerSerThrGlu-amide”, the cleaved bond result is listed as “Gln-Ser”.

Turning to “Ac-AlaAspLysAlaLysTyrGln.vertline.SerSer(Cha)-NHNH2”, the cleaved bond result was “Gln-Ser”.

Regarding “Ac-AlaSerTyrGln.vertline.SerSerLeu-amide”, the cleaved bond result is “Gln-Ser”.

For “Ac-AlaSerTyrGln.vertline.SerSerSerThrGlu-amide”, the cleaved bond result is “Gln-Ser”.

Take “Ac-AlaSerTyrGln.vertline.SerSerThrGlu-amide”: the cleaved bond result was “Gln-Ser”.

Consider “Ac-AsnLysIleSerTyrGln.vertline.SerSer-amide”, for which the cleaved bond result is “Gln-Ser”.

“Ac-LysIleSerTyrGln.vertline.SerSer-amide”: the cleaved bond result is listed as “Gln-Ser”.

Take “Ac-SerTyrGln.vertline.SerSerSerThrGlu-amide”: the cleaved bond result is on record as “Gln-Ser”.

As to “Ac-SerTyrGln.vertline.SerSerThrGlu-amide”, the cleaved bond result is listed as “Gln-Ser”.

“Ac-hArg(Cha)Gln.vertline.SerSerSer(ethylester-Leu)”: the cleaved bond entry is reported as “Gln-Ser”.

“Ac-hArgTyrGln.vertline.SerSerSer(Ethylester-Leu)”: the cleaved bond result was “Gln-Ser”.

As to Ac-hArgTyrGln.vertline.SerSerSer(MeLeu), the cleaved bond result is given as “Gln-Ser”.

As for “AlaAsnLysIleSerTyrGln.vertline.SerSerSerThrGlu-amide”, the cleaved bond entry is given as “Gln-Ser”.
